Measured values: patent US9446061B2, “Composition containing antibiotics and lysophosphatidylcholine for boosting immunity or treatment of bacterial infections” (priority 2011, dated 2016)
Marks after values point to notes of the source that are not given here.

Tests used:
CPA-CLP mice = assay: Mortality of CPA-CLP mice, LPC and DW286AA alone or combined (Example 9); s.c. 4 times 12-hr intervals from 6 hrs after CLP; format: in vivo, ICR mice; conditions: for Survival rate: LPC 1, DW286 0.5, Mix 0.75 mg/kg; for survival rates (survivors/total in brackets), Table 13: mg/kg: LPC 1, LPC + DW286 0.5 + 0.25, DW286/LPC 0.5/1.0, LPC/DW286 1.0/0.5, DW286 0.5
Source text: (§1) CPA is well known as an immunosuppressive agent. […] Then, the abdomen was closed following the general procedure.

[1] = tested on: CPA-induced immunosuppressive mice; assay: Thymus and spleen organ weights in CPA-treated mice; format: in vivo, ICR mice; conditions: LPC 1, DW286 0.5, Mix 0.75 mg/kg; for Spleen weight, Relative / Thymus weight, Relative: % of body weight at sacrifice; for Spleen weight, Absolute / Thymus weight, Absolute: at sacrifice
Experimental: At sacrifice of CPA-treated model, the wet-weights of spleen and thymus were measured and regarded as absolute weight and then relative organ weight (% of body weight) was calculated as follow:
=[(Absolute organ weights/Body weight at sacrifice individual)×100]

[2] = tested on: CPA-induced immunosuppressive mice; assay: Histopathology/histomorphometry of thymus and spleen in CPA-treated mice; format: in vivo, ICR mice; conditions: for Spleen: Number of white pulps / Thymus: Incidences of thymic cortex atrophy (atrophic changes/total observed number of thymus) / incidences of decrease of lymphoid cells in the thymic cortex / numbers of white pulps of spleen, change compared to CPA control: LPC 1, DW286 0.5, Mix 0.75 mg/kg
Experimental: After measuring of organ weight, thymus and spleen was sampled. Sampled organs were fixed in 10% neutral buffered formalin. After paraffin embedding, 3-4 μm sections were prepared. Representative sections were stained with Hematoxylin and Eosin (H&E) for light microscopical examination. After that the histological profiles of individual organs were observed.
The numbers of white pulps in spleen were calculated as N/histological sections (×50) using automated image analysis (analySIS Image Processing; SIS, Germany). In addition, the numbers of atrophic changes on thymic cortex/total observed number of thymus were also calculated.

[3] = tested on: CPA-CLP sepsis mouse model; assay: Combination effects of LPC and antibiotics (colistin, tobramycin, fusidin) in CPA-CLP sepsis mouse model (SEP013); single i.v. 6 hrs after CLP; format: in vivo, ICR mice; conditions: mpk: LPC 5, DW286aa 5, Colistin 5, Tobra 4, Fusidin 80, LPC + Colistin 5 + 5, LPC + Tobra 5 + 4, LPC + Fusidin 5 + 80
Source text: as §1
Then, body weight and mortality changes were observed.

[4] = tested on: splenic CD3+, CD4+, CD8+ and TNF-α+ cells; assay: Immunohistochemistry of spleen in CPA-treated mice; format: in vivo, ICR mice; conditions: for numbers of splenic CD3+ cells, change compared to CPA control / numbers of splenic CD4+ cells, change compared to CPA control / numbers of splenic CD8+ cells, change compared to CPA control / splenic TNF-α+ cells, change compared to CPA control: LPC 1, DW286 0.5, Mix 0.75 mg/kg; for CD3+ cells, Spleen (IHC-Histomorphometry) / CD4+ cells, Spleen (IHC-Histomorphometry) / CD8+ cells, Spleen (IHC-Histomorphometry) / TNF-α+ cells, Spleen (IHC-Histomorphometry): CPA-treated mice, Mean ± S.D., n = 9
Experimental: After deparraffinized, CD3 epitope retrievals were conducted in 10 mM Tris-1 mM EDTA Buffer (pH 9.0), CD4 and CD8 in 1 mM EDTA Buffer (pH 8.0), and TNF-α in 10 mM Citrate Buffer (pH 6.0) as previous methods. Primary anti-antibodies used in the invention were as following table.
The water bath with a staining dish, containing a buffer, was preheated until the temperature reached 95-100. The staining dish was placed at room temperature and the slides were cooled for 20 minutes. After epitope retrivals, sections were immunostained as following steps
First, the sections were incubated with methanol and 0.3% H2O2 for 30 min to block endogenous peroxidase activity at room temperature, and then rinsed three times in 0.01M phosphate buffered saline (PBS; pH 7.2) for 3 times. Then, the sections were incubated with the normal horse serum blocking solution (Vector Lab. Inc., CA, USA., dilution 1:100) for 1 hr at room temperature in a humidity chamber, to block non-specific binding of immunoglobulin, and then rinsed three times in 0.01M PBS. The sections were incubated with four types of primary antisera for 12 hrs at 4 in a humidity chamber, and then rinsed three times in 0.01M PBS. The sections were incubated with universal biotinylated secondary antibody for 1 hr at room temperature in a humidity chamber, and then rinsed three times in 0.01M PBS. The sections were incubated with ABC reagents (Vectastain Elite ABC Kit, Vector Lab. Inc., CA, USA. Dilution 1:50) for 1 hr at room temperature in a humidity chamber, and then rinsed three times in 0.01M PBS. The sections were incubated in the peroxidase substrate kit (Vector Lab. Inc., CA) for 30 seconds at room temperature, and then rinsed three times in 0.01M PBS. The sections were counterstained with the Mayer's hematoxylin solution, and then rinsed in running tap water for 30 minutes. The sections were dehydrated through 95% ethanol for 2 min and 100% ethanol for […], and then rinsed in xylene for 2 hrs. After that, the sections were observed using a cover slip with permanent mounting medium under the light microscope (Zeiss, Germany).
Histomorphometry—Among 1000 splenic or thymic cells, the numbers (N) of immunoreactive cells (CD3+, CD4+, CD8+, and TNF-α+) were observed as N/1000 splenocytes or thymocytes using automated image analysis. In thymus, the counts were conducted in the both cortex and medulla separately.

[5] = Body weight of CPA-CLP mice (Example 9); conditions: LPC 1, DW286 0.5, Mix 0.75 mg/kg
Experimental: In CPA-CLP model, body weight and mortalities were measured once a day for 5 days with automatic electronic balances (Sartorius Co., Ltd., USA), once a day for 2 days in CPA-treated model. All animals were overnight fasted at CPA dosing, CLP or initial dosing to reduce differences from feeding. In addition, body weight gains were calculated as follows:
CPA-CLP Model: Body weight at sacrifice—at CLP(5 days)
Then, mortalities, changes in thymus and spleen weights, changes in white blood cell (WBC) number, and changes in thymic and splenic CD3+, CD4+, CD8+, and TNF-α+ cell numbers, were evaluated together with changes in bone marrow polychromatic erythrocytes contain micronuclei (MNPCE) number.
Appropriate doses of candidate materials were dissolved in 5% human serum albumin, and subcutaneously dosed at 10 ml/kg (of body weight), 4 times 12-hr intervals from 6 hrs after CLP or 24 hrs after last CPA-dosing, respectively. In the INTACT, CPA, or CPA-CLP control groups, an equal volume of 5% human serum albumin was dosed by the same procedure.

[6] = At First CPA dosing (overnight fasted)

In the case of Lysophosphatidylcholine [LPC], the Survival rate (CPA-CLP mice; 1 day after CLP) is reported as 55.55%, the “survival rates (survivors/total in brackets), Table 13” value (CPA-CLP mice; 1 day after dosing) is reported as 56 (5/9) and the Survival rate (CPA-CLP mice; 2 days after CLP) is reported as 33.33%. The “survival rates (survivors/total in brackets), Table 13” value (CPA-CLP mice; 2 days after dosing) was 33 (3/9), the Survival rate (CPA-CLP mice; 3 days after CLP) was 22.22% and the “survival rates (survivors/total in brackets), Table 13” value (CPA-CLP mice; 3 days after dosing) was 22 (2/9). For the same compound, the Survival rate (CPA-CLP mice; 4 days after CLP) was 0%, the “survival rates (survivors/total in brackets), Table 13” value (CPA-CLP mice; 4 days after dosing) was 0 (0/9) and the Survival rate (CPA-CLP mice; 5 days after CLP) was 0%. The Survival rate (CPA-CLP mice; At CLP) was 100%, the “survival rates (survivors/total in brackets), Table 13” value (CPA-CLP mice; Dosing Day 0) was 100 (9/9) and the Survival rate (CPA-CLP mice; Total) was 0%. The “Spleen weight, Relative” value [1] was 0.178 ± 0.018*^,# %, the “Thymus weight, Relative” value [1] was 0.099 ± 0.017 % and the “absolute splenic weights, change compared to CPA control” value [1] was 35.62%. The “absolute thymic weights, change compared to CPA control” value [1] was 13.31%, the “relative splenic weights, change compared to CPA control” value [1] was 40.69% and the “relative thymic weights, change compared to CPA control” value [1] was 17.56%. For the same compound, the “Spleen weight, Absolute” value [1] was 0.066 ± 0.007*^,# g, the “Thymus weight, Absolute” value [1] was 0.037 ± 0.007 g and the “atrophic changes (decreases in lymphoid cells in the thymic cortex), FIG. 7” value ([2]; CPA-treated model, in words) was “effectively inhibited”. For the same compound, the “splenic atrophy and decrease in lymphoid cells, FIG. 8” value ([2]; CPA-treated model, in words) was “effectively inhibited”, the “Spleen: Number of white pulps” value [2] was 12.56 ± 1.81*^,# N/histological sections and the “Thymus: Incidences of thymic cortex atrophy (atrophic changes/total observed number of thymus)” value [2] was 8/9 (88.89%). The “incidences of decrease of lymphoid cells in the thymic cortex” value [2] was 88.89%, the “numbers of white pulps of spleen, change compared to CPA control” value [2] was 101.79% and the Mortalities ([3]; 1st CPA treat) was 0. It also gave a Survivalities ([3]; 1st CPA treat) of 100%, a Mortalities ([3]; 2nd CPA treat) of 0 and a Survivalities ([3]; 2nd CPA treat) of 100%. The Mortalities ([3]; At CLP (day 0)) was 0, the Survivalities ([3]; At CLP (day 0)) was 100% and the Mortalities ([3]; Day 1) was 2. For the same compound, the Survivalities ([3]; Day 1) was 80%, the Mortalities ([3]; Day 2) was 5 and the Survivalities ([3]; Day 2) was 30%. For the same compound, the Mortalities ([3]; Day 3) was 2, the Survivalities ([3]; Day 3) was 10% and the Mortalities ([3]; Total) was 9. The Survivalities ([3]; Total) was 10%, the “numbers of splenic CD3+ cells, change compared to CPA control” value [4] was 18.29% and the “numbers of splenic CD4+ cells, change compared to CPA control” value [4] was 136.54%. The “numbers of splenic CD8+ cells, change compared to CPA control” value [4] was 72.89%, the “splenic TNF-α+ cells, change compared to CPA control” value [4] was 36.75% and the “CD3+ cells, Spleen (IHC-Histomorphometry)” value [4] was 76.89 ± 6.23*^,## N/1000 splenocytes or thymocytes. For the same compound, the “CD4+ cells, Spleen (IHC-Histomorphometry)” value [4] was 109.33 ± 20.77*^,# N/1000 splenocytes or thymocytes, the “CD8+ cells, Spleen (IHC-Histomorphometry)” value [4] was 88.56 ± 11.18*^,# N/1000 splenocytes or thymocytes and the “TNF-α+ cells, Spleen (IHC-Histomorphometry)” value [4] was 63.67 ± 9.10*^,# N/1000 splenocytes or thymocytes. It also gave a Body weight ([5]; 1 day after CLP) of 30.10 ± 1.23 g, a Body weight ([5]; 2 days after CLP) of 29.47 ± 1.46 g and a Body weight ([5]; 3 days after CLP) of 31.40 ± 0.28 g. It also gave a Body weight ([5]; At CLP (overnight fasted)) of 32.98 ± 1.65 g and a Body weight [5, 6] of 34.53 ± 1.24 g.

For `CON=C1CN(c2nc3c(cc2F)c(=O)c(C(=O)O)cn3C2CC2)CC1(C)CN.Cl` (centres unmarked) [DW286aa, 7-[3-(aminomethyl)-4-(methoxyimino)-3-methyltetrahydro-1H-1-pyrrolyl]-1-cyclopropyl-6-fluoro-4-oxo-1,4-dihydro[1,8]naphthyridine-3-carboxylic acid hydrochloric acid salt], the Survival rate (CPA-CLP mice; 1 day after CLP) was 100%, the “survival rates (survivors/total in brackets), Table 13” value (CPA-CLP mice; 1 day after dosing) was 100 (9/9) and the Survival rate (CPA-CLP mice; 2 days after CLP) was 44.44%. The “survival rates (survivors/total in brackets), Table 13” value (CPA-CLP mice; 2 days after dosing) was 44 (4/9), the Survival rate (CPA-CLP mice; 3 days after CLP) was 33.33% and the “survival rates (survivors/total in brackets), Table 13” value (CPA-CLP mice; 3 days after dosing) was 33 (3/9). The Survival rate (CPA-CLP mice; 4 days after CLP) was 0%, the “survival rates (survivors/total in brackets), Table 13” value (CPA-CLP mice; 4 days after dosing) was 0 (0/9) and the Survival rate (CPA-CLP mice; 5 days after CLP) was 0%. For the same compound, the Survival rate (CPA-CLP mice; At CLP) was 100%, the “survival rates (survivors/total in brackets), Table 13” value (CPA-CLP mice; Dosing Day 0) was 100 (9/9) and the Survival rate (CPA-CLP mice; Total) was 100%. The “Spleen weight, Relative” value [1] was 0.117 ± 0.023 %, the “Thymus weight, Relative” value [1] was 0.082 ± 0.018 % and the “absolute splenic weights, change compared to CPA control” value [1] was −7.08%. The “absolute thymic weights, change compared to CPA control” value [1] was −2.73%, the “relative splenic weights, change compared to CPA control” value [1] was −7.46% and the “relative thymic weights, change compared to CPA control” value [1] was −3.12%. The “Spleen weight, Absolute” value [1] was 0.045 ± 0.009 g, the “Thymus weight, Absolute” value [1] was 0.032 ± 0.008 g and the “Spleen: Number of white pulps” value [2] was 6.11 ± 1.45 N/histological sections. The “Thymus: Incidences of thymic cortex atrophy (atrophic changes/total observed number of thymus)” value [2] was 9/9 (100%), the “incidences of decrease of lymphoid cells in the thymic cortex” value [2] was 100% and the “numbers of white pulps of spleen, change compared to CPA control” value [2] was −1.79%. For the same compound, the Mortalities ([3]; 1st CPA treat) was 0, the Survivalities ([3]; 1st CPA treat) was 100% and the Mortalities ([3]; 2nd CPA treat) was 0. For the same compound, the Survivalities ([3]; 2nd CPA treat) was 100%, the Mortalities ([3]; At CLP (day 0)) was 0 and the Survivalities ([3]; At CLP (day 0)) was 100%. The Mortalities ([3]; Day 1) was 0, the Survivalities ([3]; Day 1) was 100% and the Mortalities ([3]; Day 2) was 0. The Survivalities ([3]; Day 2) was 100%, the Mortalities ([3]; Day 3) was 2 and the Survivalities ([3]; Day 3) was 80%. The Mortalities ([3]; Total) was 2, the Survivalities ([3]; Total) was 80% and the “numbers of splenic CD3+ cells, change compared to CPA control” value [4] was −14.02%. For the same compound, the “numbers of splenic CD4+ cells, change compared to CPA control” value [4] was −10.82%, the “numbers of splenic CD8+ cells, change compared to CPA control” value [4] was −10.63% and the “splenic TNF-α+ cells, change compared to CPA control” value [4] was −13.840%. For the same compound, the “CD3+ cells, Spleen (IHC-Histomorphometry)” value [4] was 55.89 N/1000 splenocytes or thymocytes, the “CD4+ cells, Spleen (IHC-Histomorphometry)” value [4] was 41.22 N/1000 splenocytes or thymocytes and the “CD8+ cells, Spleen (IHC-Histomorphometry)” value [4] was 45.78 N/1000 splenocytes or thymocytes. The “TNF-α+ cells, Spleen (IHC-Histomorphometry)” value [4] was 40.11 N/1000 splenocytes or thymocytes, the Body weight ([5]; 1 day after CLP) was 31.50 ± 1.34 g and the Body weight ([5]; 2 days after CLP) was 29.88 ± 0.98 g. For the same compound, the Body weight ([5]; 3 days after CLP) was 30.97 ± 0.99 g, the Body weight ([5]; At CLP (overnight fasted)) was 33.77 ± 1.42 g and the Body weight [5, 6] was 34.32 ± 1.32 g.
